Experimental data as given in patent US7585644B2, “Mycopolasma detecting methods and materials” (priority 2003, dated 2009).

Columns and labels:
[1] = system: luciferase enzyme/reaction; experiment: Effect of detergents and substrate on light output of the luciferase reaction; assay type: biochemical
Source text: (§1) The aim of the following experiments was to determine the concentrations of Triton-X100 in the Hepes-EDTA buffer on the ratios seen with mycoplasma contaminated K562 cell cultures. Two organisms were investigated, M. hyorhinis and M. orale.
(§2) However, it is still possible to detect positive activity with concentrations as high as 20% (v/v).
(§3) The concentrations of these detergents can be taken up to 10% without loss of sensitivity of mycoplasmal detection.

luciferase = luciferase (Photinus pyralis, UniProt P08659); conditions: cited from earlier work
Chain of luciferase (P08659 whole entry): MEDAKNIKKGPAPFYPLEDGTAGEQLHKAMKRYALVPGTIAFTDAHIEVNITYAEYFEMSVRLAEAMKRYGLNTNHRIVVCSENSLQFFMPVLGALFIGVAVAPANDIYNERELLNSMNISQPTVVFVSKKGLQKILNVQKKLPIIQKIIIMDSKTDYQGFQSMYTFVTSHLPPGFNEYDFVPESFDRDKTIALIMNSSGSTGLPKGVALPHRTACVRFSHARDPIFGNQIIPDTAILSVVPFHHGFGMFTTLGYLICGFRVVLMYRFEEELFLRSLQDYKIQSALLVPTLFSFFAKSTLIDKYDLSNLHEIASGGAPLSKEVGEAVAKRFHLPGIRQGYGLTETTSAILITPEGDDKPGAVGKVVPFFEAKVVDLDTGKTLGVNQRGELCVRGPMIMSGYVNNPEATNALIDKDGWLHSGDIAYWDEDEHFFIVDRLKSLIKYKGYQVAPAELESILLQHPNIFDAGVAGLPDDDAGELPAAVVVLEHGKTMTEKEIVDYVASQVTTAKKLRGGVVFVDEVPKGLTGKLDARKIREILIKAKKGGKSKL

[2] = system: M. pneumoniae, M. hominis, M. fermentans, M. genitalium and U. urealyticum; conditions: variable responses between species; cited from earlier work
[3] = system: M. hyorhinis and M. orale; experiment: Effect of detergent concentration on detection of mycoplasma enzyme activities; assay type: cell-based
Source text: as §1, §2
However, mycoplasma can be lysed with concentrations of Triton X-100 at around 1-2%.
as §3

[4] = system: E. coli strain JM109 cells; experiment: Effect of Triton-X100 on carbamate or acetate kinase activity from bacterial cells; assay type: cell-based

CC(=O)OP(=O)(O)O [Acetyl phosphate]
concentration above which light output is reduced ([1]; assay still performs): above 10

Nc1ncnc2c1ncn2[C@H]1C[C@H](O)[C@@H](COP(=O)(O)OP(=O)(O)OP(=O)(O)O)O1 [deoxy-ATP]
light produced relative to the light generated by ATP (luciferase): less than 2%

CO/N=C1\CN(c2nc3c(cc2F)c(=O)c(C(=O)O)cn3C2CC2)CC1CN (centres unmarked) [gemifloxacin]
performance against mycoplasma compared with other antibiotics [2]: performed better than tetracycline

Triton-X100
detergent concentration above which light output drops ([1]; K562 cells infected with M. hyorhinis and M. orale, Hepes-EDTA buffer): 4-5% | concentration that lyses mycoplasma [3]: 1-2% | highest detergent concentration at which positive activity is still detected ([3]; K562 cells infected with M. hyorhinis and M. orale): 20 % (v/v) | carbamate or acetate kinase activity ([4]; Triton-X100 concentrations of the FIG. 10 experiments): did not result in any detectable carbamate or acetate kinase activity | ratio B/A ([4]; Triton-X100 increased to 1-2%): did not result in positive ratios above 1
